Source: article PMC10066365, “Nemacol is a small molecule inhibitor of C. elegans vesicular acetylcholine transporter with anthelmintic potential” (Nature Communications, 2023)
Several values for one entry are separate records, joined by “and”; a condition that tells them apart may be missing. Identical values can stand only once.

Assays:
C. elegans [1] = experiment: Suppression of trichlorfon (AChE inhibitor) paralysis, double dose-response, scored after 80 min; type: in vivo, Caenorhabditis elegans; settings: for EC50: Caenorhabditis elegans, ± 95% CI; for % para (percentage of animals able to adopt a clear sinusoidal wave pattern upon touch on the nose): wild-type, bio rep 1-3
rat VAChT = target: T1, rat VAChT (Rattus norvegicus, UniProt Q62666); experiment: [3H]Vesamicol competitive radioligand binding, PC12 cells expressing ratVAChT; settings: rVAChT-PC12, 21°C, 1% DMSO
T1 construct: expressed in transfected cells; host or cells: rat PC12 (PC12 A123.7) cells, stably transfected; shared by Dr. Ali Roghani (Texas Tech University)
T1 sequence (Q62666 1-530): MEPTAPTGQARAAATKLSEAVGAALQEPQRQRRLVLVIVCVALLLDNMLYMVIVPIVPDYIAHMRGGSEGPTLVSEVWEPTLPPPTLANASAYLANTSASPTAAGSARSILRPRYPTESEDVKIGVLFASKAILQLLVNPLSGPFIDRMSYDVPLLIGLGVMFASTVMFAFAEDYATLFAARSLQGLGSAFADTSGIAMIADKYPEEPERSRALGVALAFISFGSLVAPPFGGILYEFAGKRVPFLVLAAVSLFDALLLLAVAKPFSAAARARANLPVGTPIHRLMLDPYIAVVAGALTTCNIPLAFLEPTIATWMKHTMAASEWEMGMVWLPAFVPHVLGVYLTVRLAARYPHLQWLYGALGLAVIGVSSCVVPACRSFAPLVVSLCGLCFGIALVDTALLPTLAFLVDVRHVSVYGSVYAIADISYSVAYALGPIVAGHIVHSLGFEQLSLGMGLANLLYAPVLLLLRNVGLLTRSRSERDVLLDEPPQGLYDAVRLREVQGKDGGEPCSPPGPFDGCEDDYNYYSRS

[2] = tested on: Dirofilaria immitis L3/L4; experiment: Dirofilaria immitis L3/L4 motility assay (DiroImager, 72 h); settings: Dirofilaria immitis L4
[3] = tested on: Dirofilaria immitis microfilariae; experiment: Dirofilaria immitis microfilariae immobility assay (DiroImager, 72 h); settings: for % effect (motility), DIROIM MF: Dirofilaria immitis microfilariae
Method in brief: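 Motility read after 72 h drug exposure with an image-based high-throughput plate imager, 1% DMSO medium serving as negative control. Missouri-isolate microfilariae, roughly 250 per well, freshly purified and cultured in supplemented RPMI 1640.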

C. elegans [4] = experiment: C. elegans motor phenotype scoring on solid media (Punc/jerky-unc, coiled, paralyzed), wild-type young adults; type: in vivo, Caenorhabditis elegans; settings: for atypical locomotion (number of animals) / coiled (number of animals) / no phene (number of animals) / paralyzed (number of animals) / any phene: mean % fraction of young adults exhibiting any phenotype (coiled, jerky-Unc or paralyzed): one hour; for atypical locomotion (number of animals) / coiled (number of animals) / no phene (number of animals) / paralyzed (number of animals): young adults, 20 animals per trial, single technical replicate; for any phene: mean % fraction of young adults exhibiting any phenotype (coiled, jerky-Unc or paralyzed): mean of three biological replicates
Pristionchus pacificus = Pristionchus pacificus motor disruption dose-response on solid media, 1 h; settings: for mean % any phene: any phenotype (coiled, jerky-Unc or paralyzed) at one hour, mean of three biological replicates; for rep 1 atypical locomotion / rep 1 coiled / rep 1 no phene / rep 1 paralyzed / rep 2 atypical locomotion / rep 2 coiled / rep 2 no phene / rep 2 paralyzed / rep 3 atypical locomotion / rep 3 coiled / rep 3 no phene / rep 3 paralyzed: count of 20 animals per trial, one hour

For `COP(=O)(OC)C(O)C(Cl)(Cl)Cl` (stereo not shown) [trichlorfon], the EC50 (C. elegans [1]; read-out: EC50 of trichlorfon paralysis, nemacol-1 15 μM) was 132 ± 34 µM, the EC50 (C. elegans [1]; read-out: EC50 of trichlorfon paralysis, nemacol-1 30 μM) was 178 ± 17 µM and the EC50 (C. elegans [1]; read-out: EC50 of trichlorfon paralysis, nemacol-1 60 μM) was 138 ± 60 µM. It also gave an EC50 (C. elegans [1]; read-out: EC50 of trichlorfon paralysis, trichlorfon alone) of 83 ± 7 µM, an EC50 (C. elegans [1]; read-out: EC50 of trichlorfon paralysis, vesamicol 31.3 μM) of 102 ± 11 µM and an EC50 (C. elegans [1]; read-out: EC50 of trichlorfon paralysis, vesamicol 62.5 μM) of 121 ± 10 µM. For the same molecule, the EC50 (C. elegans [1]; read-out: EC50 of trichlorfon paralysis, vesamicol 125 μM) was 145 ± 17 µM, the EC50 (C. elegans [1]; read-out: EC50 of trichlorfon paralysis, vesamicol 250 μM) was 180 ± 22 µM and the EC50 (C. elegans [1]; read-out: EC50 of trichlorfon paralysis, vesamicol 500 μM) was 201 ± 27 µM. The “% para (percentage of animals able to adopt a clear sinusoidal wave pattern upon touch on the nose)” value (C. elegans [1]; trichlorfon 25 uM, Nemacol-1 0 uM (Nemacol-1 series)) was 92.8571% and 100%, the “% para (percentage of animals able to adopt a clear sinusoidal wave pattern upon touch on the nose)” value (C. elegans [1]; trichlorfon 25 uM, vesamicol 0 uM (vesamicol series)) was 92.8571% and 100% and the “% para (percentage of animals able to adopt a clear sinusoidal wave pattern upon touch on the nose)” value (C. elegans [1]; trichlorfon 50 uM, Nemacol-1 0 uM (Nemacol-1 series)) was 85.7143% and 75% and 67.8571%. The “% para (percentage of animals able to adopt a clear sinusoidal wave pattern upon touch on the nose)” value (C. elegans [1]; trichlorfon 50 uM, vesamicol 0 uM (vesamicol series)) was 71.4286% and 75% and 96.4286%, the “% para (percentage of animals able to adopt a clear sinusoidal wave pattern upon touch on the nose)” value (C. elegans [1]; trichlorfon 100 uM, vesamicol 0 uM (vesamicol series)) was 42.8571% and 50% and the “% para (percentage of animals able to adopt a clear sinusoidal wave pattern upon touch on the nose)” value (C. elegans [1]; trichlorfon 200 uM, Nemacol-1 0 uM (Nemacol-1 series)) was 7.143% and 3.571%. For the same molecule, the “% para (percentage of animals able to adopt a clear sinusoidal wave pattern upon touch on the nose)” value (C. elegans [1]; trichlorfon 400 uM, Nemacol-1 0 uM (Nemacol-1 series)) was 0%, the “% para (percentage of animals able to adopt a clear sinusoidal wave pattern upon touch on the nose)” value (C. elegans [1]; trichlorfon 400 uM, vesamicol 0 uM (vesamicol series)) was 0% and 3.571% and the “% para (percentage of animals able to adopt a clear sinusoidal wave pattern upon touch on the nose)” value (C. elegans [1]; trichlorfon 800 uM, Nemacol-1 0 uM (Nemacol-1 series)) was 0%. The “% para (percentage of animals able to adopt a clear sinusoidal wave pattern upon touch on the nose)” value (C. elegans [1]; trichlorfon 800 uM, vesamicol 0 uM (vesamicol series)) was 0%.

In the case of `O[C@@H]1CCCC[C@H]1N1CCC(c2ccccc2)CC1` [minus Vesamicol], the “specific binding in % of total binding (corrected by nonspecific binding NB), mean” value (“specific binding in % of total binding” below) (rat VAChT; competitor 1.00E-05 M, experiment 2019-10-30, 2.92E-09 M 3H-vesamicol, 120 min) is reported as 0.0405%, the “specific binding in % of total binding” value (rat VAChT; competitor 1.00E-05 M, experiment 2019-11-21, 2.20E-09 M 3H-vesamicol, 90 min) is reported as 1.18e-15% and the “specific binding in % of total binding” value (rat VAChT; competitor 1.00E-06 M, experiment 2019-10-30, 2.92E-09 M 3H-vesamicol, 120 min) is reported as 5%. For the same molecule, the “specific binding in % of total binding” value (rat VAChT; competitor 1.00E-06 M, experiment 2019-11-21, 2.20E-09 M 3H-vesamicol, 90 min) was 4%, the “specific binding in % of total binding” value (rat VAChT; competitor 1.00E-07 M, experiment 2019-10-30, 2.92E-09 M 3H-vesamicol, 120 min) was 29% and the “specific binding in % of total binding” value (rat VAChT; competitor 1.00E-07 M, experiment 2019-11-21, 2.20E-09 M 3H-vesamicol, 90 min) was 28%. For the same molecule, the “specific binding in % of total binding” value (rat VAChT; competitor 1.00E-08 M, experiment 2019-10-30, 2.92E-09 M 3H-vesamicol, 120 min) was 79%, the “specific binding in % of total binding” value (rat VAChT; competitor 1.00E-08 M, experiment 2019-11-21, 2.20E-09 M 3H-vesamicol, 90 min) was 82% and the “specific binding in % of total binding” value (rat VAChT; competitor 1.00E-09 M, experiment 2019-10-30, 2.92E-09 M 3H-vesamicol, 120 min) was 94%. For the same molecule, the “specific binding in % of total binding” value (rat VAChT; competitor 1.00E-09 M, experiment 2019-11-21, 2.20E-09 M 3H-vesamicol, 90 min) was 98%, the “specific binding in % of total binding” value (rat VAChT; competitor 1.00E-10 M, experiment 2019-10-30, 2.92E-09 M 3H-vesamicol, 120 min) was 97% and the “specific binding in % of total binding” value (rat VAChT; competitor 1.00E-10 M, experiment 2019-11-21, 2.20E-09 M 3H-vesamicol, 90 min) was 98%. The “specific binding in % of total binding” value (rat VAChT; competitor 1.00E-11 M, experiment 2019-10-30, 2.92E-09 M 3H-vesamicol, 120 min) was 95% and the “specific binding in % of total binding” value (rat VAChT; competitor 1.00E-11 M, experiment 2019-11-21, 2.20E-09 M 3H-vesamicol, 90 min) was 96%.

In the case of `O=[N+]([O-])c1ccc(N2CCN(C3CCCCC3)CC2)cc1` [Nemacol-64], the “% effect (motility), DIROIM L4” value ([2]; 2 µM) is reported as 0%, the “% effect (motility), DIROIM L4” value ([2]; 10 µM) is reported as 0% and the “% effect (motility), DIROIM L4” value ([2]; 50 µM) is reported as 100%. For the same molecule, the “% effect (motility), DIROIM MF” value ([3]; 0.016 µM) was 0%, the “% effect (motility), DIROIM MF” value ([3]; 0.08 µM) was 0% and the “% effect (motility), DIROIM MF” value ([3]; 0.4 µM) was 0%. For the same molecule, the “% effect (motility), DIROIM MF” value ([3]; 2 µM) was 0%, the “% effect (motility), DIROIM MF” value ([3]; 10 µM) was 40% and the EC50 ([3]; Dirofilaria immitis, 72 h, read-out: Dirofilaria immitis filariae EC50) was 11 µM. The “atypical locomotion (number of animals)” value (C. elegans [4]; 3.75uM) was 18 and 13 and 2 and 10 and 6, the “coiled (number of animals)” value (C. elegans [4]; 3.75uM) was 2 and 5 and 16 and 1 and 3 and the “no phene (number of animals)” value (C. elegans [4]; 3.75uM) was 0 and 2 and 1 and 8 and 11. For the same molecule, the “paralyzed (number of animals)” value (C. elegans [4]; 3.75uM) was 0 and 2 and 1, the “any phene: mean % fraction of young adults exhibiting any phenotype (coiled, jerky-Unc or paralyzed)” value (shortened to “any phene: mean % fraction”) (C. elegans [4]; 3.75uM) was 81.6667% and the “atypical locomotion (number of animals)” value (C. elegans [4]; 15uM) was 11 and 10 and 4 and 3 and 16 and 14. For the same molecule, the “coiled (number of animals)” value (C. elegans [4]; 15uM) was 9 and 8 and 15 and 14 and 3 and 2, the “no phene (number of animals)” value (C. elegans [4]; 15uM) was 0 and 2 and the “paralyzed (number of animals)” value (C. elegans [4]; 15uM) was 0 and 2 and 1 and 3. For the same molecule, the “any phene: mean % fraction” value (C. elegans [4]; 15uM) was 96.746%, the “atypical locomotion (number of animals)” value (C. elegans [4]; 60uM) was 3 and 2 and 8 and 1 and 0 and the “coiled (number of animals)” value (C. elegans [4]; 60uM) was 14 and 16 and 3 and 0 and 7 and 5. For the same molecule, the “no phene (number of animals)” value (C. elegans [4]; 60uM) was 0, the “paralyzed (number of animals)” value (C. elegans [4]; 60uM) was 3 and 2 and 14 and 12 and 15 and the “any phene: mean % fraction” value (C. elegans [4]; 60uM) was 100%. For the same molecule, the EC50 (C. elegans [4]; Caenorhabditis elegans, any motor phenotype after 1 h on solid media, ± 95% CI, read-out: C. elegans - motor disruption EC50) was 1.6 ± 2.8 µM, the EC50 (Pristionchus pacificus; Pristionchus pacificus, 1 h, read-out: P. pacificus motor disruption EC50) was 14.3 µM and the “mean % any phene” value (Pristionchus pacificus; conc 3.75) was 0%. The “rep 1 atypical locomotion” value (Pristionchus pacificus; conc 3.75) was 0, the “rep 1 coiled” value (Pristionchus pacificus; conc 3.75) was 0 and the “rep 1 no phene” value (Pristionchus pacificus; conc 3.75) was 20. The “rep 1 paralyzed” value (Pristionchus pacificus; conc 3.75) was 0, the “rep 2 atypical locomotion” value (Pristionchus pacificus; conc 3.75) was 0 and the “rep 2 coiled” value (Pristionchus pacificus; conc 3.75) was 0. The “rep 2 no phene” value (Pristionchus pacificus; conc 3.75) was 20, the “rep 2 paralyzed” value (Pristionchus pacificus; conc 3.75) was 0 and the “rep 3 atypical locomotion” value (Pristionchus pacificus; conc 3.75) was 0. The “rep 3 coiled” value (Pristionchus pacificus; conc 3.75) was 0, the “rep 3 no phene” value (Pristionchus pacificus; conc 3.75) was 20 and the “rep 3 paralyzed” value (Pristionchus pacificus; conc 3.75) was 0. The “mean % any phene” value (Pristionchus pacificus; conc 15) was 70.8333%, the “rep 1 atypical locomotion” value (Pristionchus pacificus; conc 15) was 10 and 14 and the “rep 1 no phene” value (Pristionchus pacificus; conc 15) was 7 and 5. The “rep 1 paralyzed” value (Pristionchus pacificus; conc 15) was 0, the “rep 2 atypical locomotion” value (Pristionchus pacificus; conc 15) was 14 and 12 and the “rep 2 no phene” value (Pristionchus pacificus; conc 15) was 5 and 8. For the same molecule, the “rep 2 paralyzed” value (Pristionchus pacificus; conc 15) was 0, the “rep 3 atypical locomotion” value (Pristionchus pacificus; conc 15) was 15 and 12 and the “rep 3 coiled” value (Pristionchus pacificus; conc 15) was 2 and 1. The “rep 3 paralyzed” value (Pristionchus pacificus; conc 15) was 0, the “mean % any phene” value (Pristionchus pacificus; conc 60) was 100% and the “rep 1 atypical locomotion” value (Pristionchus pacificus; conc 60) was 2 and 1. The “rep 1 coiled” value (Pristionchus pacificus; conc 60) was 8 and 12, the “rep 1 no phene” value (Pristionchus pacificus; conc 60) was 0 and the “rep 1 paralyzed” value (Pristionchus pacificus; conc 60) was 10 and 7. The “rep 2 atypical locomotion” value (Pristionchus pacificus; conc 60) was 0, the “rep 2 coiled” value (Pristionchus pacificus; conc 60) was 9 and 11 and the “rep 2 no phene” value (Pristionchus pacificus; conc 60) was 0. The “rep 2 paralyzed” value (Pristionchus pacificus; conc 60) was 11 and 9, the “rep 3 coiled” value (Pristionchus pacificus; conc 60) was 10 and 11 and the “rep 3 no phene” value (Pristionchus pacificus; conc 60) was 0. For the same molecule, the “rep 3 paralyzed” value (Pristionchus pacificus; conc 60) was 7 and 8.
